The conditions of data set [1]: following chronic administration; cited from earlier work.
For another data set, the target named is GABA-AT (Sus scrofa, UniProt P80147). Briefly: Substrate activity for GABA-AT. The note with it: for Km: substrate, Hanes-Woolf plots, pH 8.5, room temperature, 16 h. The class given is biochemical, pig.
GABA-AT, sequence (P80147 29-500): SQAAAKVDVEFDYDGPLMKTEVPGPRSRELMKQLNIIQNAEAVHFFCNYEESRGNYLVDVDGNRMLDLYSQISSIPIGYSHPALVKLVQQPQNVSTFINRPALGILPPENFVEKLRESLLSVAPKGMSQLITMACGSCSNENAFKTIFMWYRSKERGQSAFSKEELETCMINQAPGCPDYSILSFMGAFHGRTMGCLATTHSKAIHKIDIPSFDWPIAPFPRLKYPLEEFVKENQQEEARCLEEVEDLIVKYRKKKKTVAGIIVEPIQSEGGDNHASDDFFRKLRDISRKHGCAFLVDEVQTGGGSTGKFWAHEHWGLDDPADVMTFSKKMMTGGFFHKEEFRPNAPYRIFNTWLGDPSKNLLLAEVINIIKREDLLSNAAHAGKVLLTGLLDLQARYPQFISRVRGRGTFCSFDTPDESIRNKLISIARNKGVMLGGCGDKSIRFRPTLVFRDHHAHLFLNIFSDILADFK

Regarding `C=CC(N)CCC(=O)O` (centres unmarked) [Compound 1, 4-aminohex-5-enoic acid], the “patients exhibiting irreversible abnormalities in peripherial vision” value in data set [1] is listed as 25–50%.

With `Cl.NCc1ccc(C(=O)O)o1` [Compound 4a, 5-(Aminomethyl)furan-2-carboxylic acid hydrochloride], at GABA-AT (substrate efficiency), the kcat/Km result is “highest kcat/Km value”. Usually Km stands for the concentration of substrate that gives half-maximal velocity. As to `Cl.NCc1ccc(C(=O)O)s1` [Compound 4b, 5-(Aminomethyl)thiophene-2-carboxylic acid hydrochloride], the Michaelis-Menten constant (Km) result on GABA-AT is on record as “much higher”.

Take `Cl.NCc1ccc(C(=O)O)[nH]1` [Compound 4c]: on GABA-AT, the Km entry is given as “much higher”. `Cl.NCc1coc(C(=O)O)c1` [Compound 5a, 4-(Aminomethyl)furan-2-carboxylic acid hydrochloride]: the “Km, fold lower than that of GABA” value at GABA-AT (relative to GABA) is “approximately 4 fold”.

On to `Cl.NCc1cscc1C(=O)O` [Compound 6b, 4-(Aminomethyl)thiophene-3-carboxylic acid hydrochloride], for which, at GABA-AT, the “substrate activity (transamination)” value is reported as “Transamination was observed” and the Km is over 10 mM. Take `Cl.[2H]C([2H])(N)c1coc(C(=O)O)c1` [[D2]-5a]: the “^Hk/^Dk for substrate turnover (kinetic isotope effect)” value at GABA-AT ([D2]-5a evaluated alongside unlabeled 5a) is on record as 1.22 ± 0.07.

(Values after paper PMC3448830 (Bioorganic & medicinal chemistry, 2012).)
